Patent publication US11292807B2 (OCEANS LTD., priority 2015, dated 2022)
“And” between values parts separate entries of the source, which are not always exact repeats. Identical values can stand only once. Like-named read-outs stand apart in the source and are kept apart here.

Assays:
[1] = test system: MCF7 (mammary gland adenocarcinoma); test: CIMA assay, cell viability, MCF7; format: cell-based, human; settings: SDS 5% control
Experimental: (§1) Stock solutions of the extracts were prepared in dimethylsulfoxide (DMSO) at 10 mg/mL and stored in 200 μl aliquots at −20° C. until analysis. This preparation ensured that the DMSO delivered to cells in culture never exceeded 1%.
(§2) Prepared extracts were assessed following chronic exposure conditions in which cells were seeded at 2×10^3 cells/well (96 well-plate) and incubated with test compounds for 72 h. Each compound was evaluated over a range of concentrations (0, 10, 25, 50 or 100 μg/ml). Cell proliferation was initially assessed using a standard colorimetric indicator of metabolic activity (CIMA) assay. In this assay, tetrazole reduction was evaluated as a measure of metabolic function that evaluates mitochondrial activity to determine the extent of cell proliferation within a culture. This assay is based on the reduction of yellow tetrazolium salt to purple formazan by mitochondrial reductases enzyme in viable cells, resulting in a color changed that confers a change in absorbance.

PC3 [2] = test system: PC3
[3] = test system: SKOV3 (ovarian adenocarcinoma)
MDA-MB = settings: MDA-MB
PC3 [4] = test: CIMA assay, cell viability, PC3; settings: PC3
[5] = test system: U373 (glioblastoma-astrocytoma); test: CIMA assay, cell viability, U373; settings: for Fold change in viability AVG / Average cell viability: U373
[6] = test system: SKOV3 (ovarian adenocarcinoma); test: CIMA assay, cell viability, SKOV3; settings: SKOV
[7] = test system: THP-1 (acute monocytic leukemia); test: CIMA assay, cell viability, THP-1; settings: THP-1
Experimental: as §1, §2

[8] = test system: CCD1079SK (fibroblast, noncancerous but proliferating); test: CIMA assay, cell viability, CCD1079SK; settings: for Fold change in viability AVG / Average cell viability: CCD
A549 (lung carcinoma) = test: CIMA assay (colorimetric indicator of metabolic activity), cell viability, A549; settings: A549; for Average cell viability: unit assumed

CCCCCCCCCCCCOS(=O)(=O)[O-].[Na+] [SDS, reference compound]
AVG (CIMA assay, cell viability) [1]: 49.9
viability (AVG) [1]: 44.1
viability (AVG) (PC3 [2]): 77.3%
AVG (CIMA assay, cell viability) [3]: 56.5
viability (AVG) [3]: 78.9%
Fold change in viability AVG (MDA-MB; positive control 250 ug/mL): 0.16
Fold change in viability AVG (MDA-MB; positive control SDS 250 ug/mL): 0.16
Fold change in viability AVG (PC3 [4]; positive control 250 ug/mL): 0.08
Fold change in viability AVG (PC3 [4]; positive control SDS 250 ug/mL): 0.08
AVG (CIMA assay, cell viability) ([5]; U373, SDS 5% control): 58.1 and 44.1
viability (AVG) ([5]; U373, SDS 5% control): 48.4
Fold change in viability AVG ([5]; positive control 250 ug/mL): 0.05
Average cell viability ([5]; positive control 250 ug/ml): 4%
Fold change in viability AVG ([5]; positive control SDS 250 ug/mL): 0.05
Average cell viability ([5]; positive control SDS 250 ug/ml): 4%
Fold change in viability AVG ([6]; positive control 250 ug/mL): 0.10
Fold change in viability AVG ([6]; positive control SDS 250 ug/mL): 0.10
AVG (CIMA assay, cell viability) ([7]; SDS 5% control): 36.2
viability (AVG) ([7]; SDS 5% control): 20.3
Fold change in viability AVG ([7]; positive control 250 ug/mL): 0.18
Average cell viability ([7]; positive control 250 ug/ml): 16%
Fold change in viability AVG ([7]; positive control SDS 250 ug/mL): 0.18
Average cell viability ([7]; positive control SDS 250 ug/ml): 16%
viability (AVG) ([8]; CCD1079SK, SDS 5% control): 9.4
AVG (CIMA assay, cell viability) ([8]; CCD10795K, SDS 5% control): 11.3
Fold change in viability AVG ([8]; positive control 250 ug/mL): 0.06
Average cell viability ([8]; positive control 250 ug/ml): 5%
Fold change in viability AVG ([8]; positive control SDS 250 ug/mL): 0.06
Average cell viability ([8]; positive control SDS 250 ug/ml): 5%
viability (AVG) (A549 (lung carcinoma); SDS 5% control): 68.7
Fold change in viability AVG (A549 (lung carcinoma); positive control 250 ug/mL): 0.13
Average cell viability (A549 (lung carcinoma); positive control 250 ug/ml): 11%
Fold change in viability AVG (A549 (lung carcinoma); positive control SDS 250 ug/mL): 0.13
Average cell viability (A549 (lung carcinoma); positive control SDS 250 ug/ml): 11%
